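Cells were grown in 96-well plates and exposed to each compound for 48 hours at five concentrations; endpoints were interpolated linearly between bracketing concentrations, or set to the highest concentration if not reached. Abbreviation: GI50, concentration required for 50% inhibition of growth.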 Activity calls are given as the source filed them. Cut-off read from the data, not from the text of the source: active = GI50 up to about 1.1 µM and inactive = higher.
Key:
Test in all cases: inhibition of tumour cell growth, NCI panel, 48 h
A549 = test system: A549
CAKI-1 = test system: CAKI-1
CCRF-CEM = test system: CCRF-CEM
HL-60 = test system: HL-60
HOP-62 = test system: HOP-62
Hs-578T = test system: Hs-578T
IGROV-1 = test system: IGROV-1
KM12 = test system: KM12
M14 = test system: M14
NCI-H23 = test system: NCI-H23
NCI-H522 = test system: NCI-H522
OVCAR-5 = test system: OVCAR-5
RXF 393 = test system: RXF 393
SF-268 = test system: SF-268
SF-295 = test system: SF-295
SK-MEL-28 = test system: SK-MEL-28
SK-MEL-2 = test system: SK-MEL-2
SK-OV-3 = test system: SK-OV-3
SW-620 = test system: SW-620
UACC-257 = test system: UACC-257

Measured: GI50

CN(C)N1C(=O)C(=O)N(c2cccc3ccccc23)C1=O
inactive: A549 > 10 µM | CAKI-1 > 10 µM | CCRF-CEM > 10 µM | HL-60 > 10 µM | HOP-62 > 10 µM | Hs-578T > 10 µM | IGROV-1 > 10 µM | KM12 > 10 µM | M14 > 10 µM | NCI-H23 > 10 µM | NCI-H522 > 10 µM | OVCAR-5 > 10 µM | RXF 393 > 10 µM | SF-268 > 10 µM | SF-295 > 10 µM | SK-MEL-28 > 10 µM | SK-MEL-2 > 10 µM | SK-OV-3 > 10 µM | SW-620 > 10 µM

CC1(CO)COS(=O)OC1 (stereo not drawn)
inactive: A549 > 100 µM | CCRF-CEM > 100 µM | Hs-578T > 100 µM | KM12 > 100 µM | NCI-H23 > 100 µM | NCI-H522 > 100 µM | RXF 393 > 100 µM | SF-268 > 100 µM | SF-295 > 100 µM | SK-MEL-28 > 100 µM | SK-OV-3 > 100 µM | SW-620 > 100 µM | UACC-257 > 100 µM

O=C1c2ccccc2C2(c3ccc(Cl)cc3)N[C@H]3CCCC[C@@H]3N12 (stereo partly drawn)
inactive: A549 77.6 µM | CAKI-1 > 100 µM | CCRF-CEM 53.2 µM | HL-60 47.9 µM | HOP-62 41.1 µM | Hs-578T 59.2 µM | IGROV-1 > 100 µM | KM12 85.5 µM | NCI-H23 > 100 µM | RXF 393 97.9 µM | SF-268 48.8 µM | SF-295 > 100 µM | SK-MEL-28 > 100 µM | SK-OV-3 > 100 µM | SW-620 > 100 µM | UACC-257 > 100 µM

CC(C)N(C(=O)C1(O)c2ccccc2C=Cc2ccccc21)C(C)C
inactive: A549 19.9 µM | CAKI-1 24.7 µM | HL-60 1.92 µM | HOP-62 19.2 µM | Hs-578T 45.9 µM | IGROV-1 14.8 µM | KM12 22.9 µM | M14 19 µM | NCI-H23 17.6 µM | NCI-H522 12.5 µM | OVCAR-5 14.4 µM | SF-268 21.5 µM | SF-295 17.8 µM | SK-MEL-28 17.2 µM | SK-MEL-2 17.1 µM | SK-OV-3 25.3 µM | SW-620 17.3 µM

OC1C2CCC3C2CC(C(O)(c2ccccc2)c2ccccc2)C13 (stereo not drawn)
inactive: A549 36.6 µM | CAKI-1 40 µM | CCRF-CEM 29.4 µM | HOP-62 63.2 µM | Hs-578T 45.9 µM | IGROV-1 23.9 µM | KM12 61.7 µM | M14 65.8 µM | NCI-H23 44.5 µM | NCI-H522 34.8 µM | OVCAR-5 > 100 µM | RXF 393 34.7 µM | SF-268 > 100 µM | SF-295 28 µM | SK-MEL-28 > 100 µM | SK-MEL-2 18.4 µM | SK-OV-3 > 100 µM | SW-620 > 100 µM | UACC-257 24.6 µM

O=C(O)C(=C\c1ccc2c(c1)OCO2)/C(=C/c1ccc2c(c1)OCO2)C(=O)O
inactive: CAKI-1 > 100 µM | CCRF-CEM > 100 µM | HL-60 > 100 µM | HOP-62 > 100 µM | Hs-578T > 100 µM | IGROV-1 > 100 µM | KM12 > 100 µM | M14 > 100 µM | NCI-H23 > 100 µM | OVCAR-5 > 100 µM | RXF 393 > 100 µM | SF-295 > 100 µM | SK-MEL-28 > 100 µM | SK-MEL-2 > 100 µM | SK-OV-3 > 100 µM | SW-620 > 100 µM | UACC-257 > 100 µM

N#CCCN(CCN(CCC#N)C(=O)Nc1ccccc1)C(=O)Nc1ccccc1
inactive: A549 80.2 µM | CCRF-CEM > 100 µM | HL-60 > 100 µM | HOP-62 20.8 µM | Hs-578T 33.8 µM | IGROV-1 68.9 µM | M14 > 100 µM | NCI-H23 61.4 µM | NCI-H522 32.3 µM | OVCAR-5 > 100 µM | RXF 393 24.4 µM | SF-268 28.5 µM | SF-295 31.8 µM | SK-MEL-28 > 100 µM | SK-MEL-2 > 100 µM | SK-OV-3 28.6 µM | SW-620 > 100 µM | UACC-257 > 100 µM

CC1OC1C(=O)P(=O)(O)O (stereo not drawn)
inactive: A549 > 100 µM | CAKI-1 > 100 µM | CCRF-CEM > 100 µM | HL-60 > 100 µM | HOP-62 > 100 µM | Hs-578T > 100 µM | IGROV-1 > 100 µM | KM12 > 100 µM | M14 > 100 µM | NCI-H23 > 100 µM | NCI-H522 > 100 µM | OVCAR-5 > 100 µM | SF-268 > 100 µM | SF-295 > 100 µM | SK-MEL-28 > 100 µM | SK-MEL-2 > 100 µM | SK-OV-3 > 100 µM | SW-620 > 100 µM | UACC-257 > 100 µM

— ChEMBL document CHEMBL1201862, “PubChem BioAssay data set” (2004)
